Laboratory results published in patent US7771736B2, “Glyphosate formulations and their use for the inhibition of 5-enolpyruvylshikimate-3-phosphate synthase” (Monsanto Technology LLC, priority 2002, dated 2010).
Read-outs that look alike come from different tables or passages of the source.

What was measured:
[1] = system: different weed species; experiment: herbicidal efficacy in whole plants / on different weed species; format: in vivo; conditions: for enhancement of glyphosate herbicidal efficacy: additive combined with glyphosate, whole plants / weed species
[2] = system: maize EPSPS; experiment: enzyme activity of maize EPSPS (HPLC radioassay, S3P and 14C-PEP) with oxalate or citrate in the presence and absence of glyphosate; format: biochemical; conditions: for effect on the inhibition of EPSPS by glyphosate (rate of catalytic activity on S3P and PEP): additive with 0, 0.6 or 6 mcM glyphosate, relative rate normalized to zero glyphosate
Experimental: These examples assessed the enzyme activity of maize EPSPS with increasing concentrations of oxalate (0, 0.06 mcM, 0.3 mcM, 1.5 mcM, 7.5 mcM and 37.5 mcM) in the presence and absence of glyphosate. Three different conditions (0, 0.6 mcM, and 6 mcM glyphosate) were studied. The assay consisted of incubating enzyme (9 mcg/mL final concentration in the assay) with S3P and ^14C-PEP. The conversion of labeled substrate to 5-enol-[^14C]-pyruvylshikimate-3-phosphate was determined by HPLC radioassay.
Initial velocities were calculated by multiplying fractional turnover per unit time by the initial concentration of the labeled substrate. The data are expressed as relative rates of the enzyme, where relative rate is the reaction rate at a given condition normalized to similar reaction with zero glyphosate.

[3] = Metal Ion Mg2+; cited from earlier work
[4] = Metal Ion Ca2+; cited from earlier work
[5] = system: Toxoplasma gondii; conditions: cited from earlier work
[6] = system: Plasmodium falciparum; conditions: Plasmodium falciparum (malaria); cited from earlier work
[7] = system: Cryptosporidium parvum; conditions: cited from earlier work

Row | Structure (SMILES) | herbicidal property by itself ([1]; additive alone, enzyme studies and whole plant response) | enhancement of glyphosate herbicidal efficacy [1] | effect on the inhibition of EPSPS by glyphosate (rate of catalytic activity on S3P and PEP) [2] | effect on the inhibition of EPSPS by glyphosate (rate of catalytic activity on S3P and PEP) ([2]; listed as oxalate) | inhibitory effect on the enzyme on its own ([2]; without glyphosate) | Log K (Binding Constant) [3] | Log K (Binding Constant) [4] | growth inhibition of parasite [5] | growth inhibition of parasite [6] | growth inhibition of parasite [7]
1 | O=C(O)C(=O)O [Oxalic acid, oxalic acid] | does not have any herbicidal property | enhance the inhibition of EPSPS by glyphosate as well as its herbicidal efficacy in whole plants | enhance the inhibition of EPSPS by glyphosate | enhanced the enzyme binding of glyphosate | do not have any inhibitory effect on the enzyme on their own | 2.76 | 2.46 | – | – | –
2 | O=C(O)CNCP(=O)(O)O [glyphosate, N-phosphonomethyl glycine] | – | – | – | – | – | – | – | growth of these parasites can be inhibited | growth of these parasites can be inhibited | growth of these parasites can be inhibited
3 | O=C(O)CC(O)(CC(=O)O)C(=O)O [Citric acid, citric acid] | – | failed to show enhancement of glyphosate efficacy on different weed species | did not have any effect on EPSPS inhibition by glyphosate | – | – | 3.45 | 3.45 | – | – | –
